Patent US11629143B2, “HipK4 inhibitors and uses thereof” (Vibliome Therapeutics, LLC, priority 2020, dated 2023)

Tests used:
Experiment in all cases: Kinase panel (mobility shift)
Assay type in all cases: biochemical
[1] = molecular target: P38-a (Homo sapiens, UniProt Q16539); details: at 5 um
Method in brief: (§1)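 Tested at a single 5 um concentration within a 299-kinase panel, compounds were scored by electrophoretic mobility shift of a fluorescent substrate into product. Categories: A, 95% or greater; B, 90%-94%; C, 80%-89%.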

[2] = molecular target: RIPK2 (Homo sapiens, UniProt O43353)
Method in brief: as §1

[3] = molecular target: T1, TAOK2 (Homo sapiens, UniProt Q9UL54)
T1 sequence (Q9UL54 1-1235): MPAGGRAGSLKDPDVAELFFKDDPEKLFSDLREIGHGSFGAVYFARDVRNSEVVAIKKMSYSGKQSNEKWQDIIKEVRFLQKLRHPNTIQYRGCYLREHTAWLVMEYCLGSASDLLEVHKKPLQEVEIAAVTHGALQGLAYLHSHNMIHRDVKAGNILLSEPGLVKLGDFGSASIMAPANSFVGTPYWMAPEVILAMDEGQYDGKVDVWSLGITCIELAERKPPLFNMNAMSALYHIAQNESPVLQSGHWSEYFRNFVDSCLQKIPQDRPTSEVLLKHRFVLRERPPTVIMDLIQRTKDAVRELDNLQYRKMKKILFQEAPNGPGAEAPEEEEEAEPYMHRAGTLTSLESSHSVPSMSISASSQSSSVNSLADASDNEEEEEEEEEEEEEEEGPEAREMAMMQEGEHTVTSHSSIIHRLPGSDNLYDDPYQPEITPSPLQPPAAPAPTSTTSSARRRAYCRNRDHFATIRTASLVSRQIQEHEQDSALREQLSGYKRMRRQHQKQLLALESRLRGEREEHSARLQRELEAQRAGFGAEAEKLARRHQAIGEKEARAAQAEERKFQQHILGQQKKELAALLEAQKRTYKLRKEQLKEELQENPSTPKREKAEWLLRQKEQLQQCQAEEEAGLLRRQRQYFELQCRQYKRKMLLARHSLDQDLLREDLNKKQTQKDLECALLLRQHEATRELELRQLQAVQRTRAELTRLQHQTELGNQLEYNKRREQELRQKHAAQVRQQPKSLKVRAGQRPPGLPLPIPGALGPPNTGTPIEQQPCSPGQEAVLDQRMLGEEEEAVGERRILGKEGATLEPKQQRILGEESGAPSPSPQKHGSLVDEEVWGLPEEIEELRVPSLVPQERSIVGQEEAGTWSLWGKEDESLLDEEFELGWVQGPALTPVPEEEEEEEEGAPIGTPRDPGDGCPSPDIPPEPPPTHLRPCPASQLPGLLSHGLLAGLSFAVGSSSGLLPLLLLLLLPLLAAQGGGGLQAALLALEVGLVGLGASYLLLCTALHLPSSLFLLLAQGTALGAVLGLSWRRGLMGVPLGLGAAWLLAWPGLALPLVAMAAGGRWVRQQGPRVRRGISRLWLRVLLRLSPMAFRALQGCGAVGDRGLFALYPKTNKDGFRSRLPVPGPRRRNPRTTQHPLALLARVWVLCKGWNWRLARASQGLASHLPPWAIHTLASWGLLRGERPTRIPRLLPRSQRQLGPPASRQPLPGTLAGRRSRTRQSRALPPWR
Method in brief: as §1

[4] = molecular target: TRKA (Homo sapiens, UniProt P04629)
Method in brief: as §1

[5] = molecular target: TRKB (Homo sapiens, UniProt Q16620)
Method in brief: as §1

[6] = molecular target: T2, TYRO3 (Homo sapiens, UniProt Q06418)
T2 sequence (Q06418 41-890): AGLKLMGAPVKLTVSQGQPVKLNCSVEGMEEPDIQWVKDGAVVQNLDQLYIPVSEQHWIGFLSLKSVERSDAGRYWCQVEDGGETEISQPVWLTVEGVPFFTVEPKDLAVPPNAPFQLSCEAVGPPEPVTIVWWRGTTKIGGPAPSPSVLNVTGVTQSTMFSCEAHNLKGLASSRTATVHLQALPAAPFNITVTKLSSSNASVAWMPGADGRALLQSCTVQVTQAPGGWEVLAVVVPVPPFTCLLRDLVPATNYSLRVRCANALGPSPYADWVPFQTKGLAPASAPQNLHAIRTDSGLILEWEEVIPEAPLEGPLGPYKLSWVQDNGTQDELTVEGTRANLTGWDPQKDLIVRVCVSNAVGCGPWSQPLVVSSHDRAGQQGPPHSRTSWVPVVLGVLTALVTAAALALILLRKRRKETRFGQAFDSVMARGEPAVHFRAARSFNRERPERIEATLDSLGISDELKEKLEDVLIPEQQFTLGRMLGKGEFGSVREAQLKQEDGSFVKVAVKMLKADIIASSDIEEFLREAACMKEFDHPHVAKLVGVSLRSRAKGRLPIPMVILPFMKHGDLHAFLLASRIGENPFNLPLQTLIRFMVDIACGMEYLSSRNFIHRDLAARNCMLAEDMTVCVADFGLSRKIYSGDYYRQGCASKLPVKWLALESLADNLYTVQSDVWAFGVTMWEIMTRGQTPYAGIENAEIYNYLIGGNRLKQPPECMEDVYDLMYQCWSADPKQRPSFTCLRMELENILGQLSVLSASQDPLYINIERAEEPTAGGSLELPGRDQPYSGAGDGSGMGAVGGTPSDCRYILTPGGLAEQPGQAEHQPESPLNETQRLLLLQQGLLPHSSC
Method in brief: as §1

RIPK2, sequence (O43353 whole entry, species assumed): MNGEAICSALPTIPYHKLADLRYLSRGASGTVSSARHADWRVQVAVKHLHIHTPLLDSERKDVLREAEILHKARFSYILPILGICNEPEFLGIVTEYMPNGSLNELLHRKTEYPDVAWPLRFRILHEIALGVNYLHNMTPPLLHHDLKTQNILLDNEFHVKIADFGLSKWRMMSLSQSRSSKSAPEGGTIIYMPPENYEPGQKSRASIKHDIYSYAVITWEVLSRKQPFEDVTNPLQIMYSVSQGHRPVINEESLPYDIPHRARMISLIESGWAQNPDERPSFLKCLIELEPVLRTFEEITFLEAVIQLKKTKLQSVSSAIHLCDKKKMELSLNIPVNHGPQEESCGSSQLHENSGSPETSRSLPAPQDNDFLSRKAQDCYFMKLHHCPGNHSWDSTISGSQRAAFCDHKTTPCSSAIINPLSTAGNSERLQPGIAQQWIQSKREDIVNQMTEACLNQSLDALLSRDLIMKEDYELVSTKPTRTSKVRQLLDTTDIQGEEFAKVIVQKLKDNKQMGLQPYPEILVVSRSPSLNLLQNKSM
P38-a, sequence (Q16539 whole entry): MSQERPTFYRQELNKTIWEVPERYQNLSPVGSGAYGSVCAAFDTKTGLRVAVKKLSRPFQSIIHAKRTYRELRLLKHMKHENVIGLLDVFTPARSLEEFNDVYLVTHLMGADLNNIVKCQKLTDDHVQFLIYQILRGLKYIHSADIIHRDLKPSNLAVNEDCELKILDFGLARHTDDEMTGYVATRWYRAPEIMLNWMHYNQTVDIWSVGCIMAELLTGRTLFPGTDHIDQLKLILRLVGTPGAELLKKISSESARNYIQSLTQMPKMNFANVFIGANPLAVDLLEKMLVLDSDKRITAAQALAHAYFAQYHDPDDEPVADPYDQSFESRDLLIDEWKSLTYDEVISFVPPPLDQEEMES
TRKA, sequence (P04629 33-796, species assumed): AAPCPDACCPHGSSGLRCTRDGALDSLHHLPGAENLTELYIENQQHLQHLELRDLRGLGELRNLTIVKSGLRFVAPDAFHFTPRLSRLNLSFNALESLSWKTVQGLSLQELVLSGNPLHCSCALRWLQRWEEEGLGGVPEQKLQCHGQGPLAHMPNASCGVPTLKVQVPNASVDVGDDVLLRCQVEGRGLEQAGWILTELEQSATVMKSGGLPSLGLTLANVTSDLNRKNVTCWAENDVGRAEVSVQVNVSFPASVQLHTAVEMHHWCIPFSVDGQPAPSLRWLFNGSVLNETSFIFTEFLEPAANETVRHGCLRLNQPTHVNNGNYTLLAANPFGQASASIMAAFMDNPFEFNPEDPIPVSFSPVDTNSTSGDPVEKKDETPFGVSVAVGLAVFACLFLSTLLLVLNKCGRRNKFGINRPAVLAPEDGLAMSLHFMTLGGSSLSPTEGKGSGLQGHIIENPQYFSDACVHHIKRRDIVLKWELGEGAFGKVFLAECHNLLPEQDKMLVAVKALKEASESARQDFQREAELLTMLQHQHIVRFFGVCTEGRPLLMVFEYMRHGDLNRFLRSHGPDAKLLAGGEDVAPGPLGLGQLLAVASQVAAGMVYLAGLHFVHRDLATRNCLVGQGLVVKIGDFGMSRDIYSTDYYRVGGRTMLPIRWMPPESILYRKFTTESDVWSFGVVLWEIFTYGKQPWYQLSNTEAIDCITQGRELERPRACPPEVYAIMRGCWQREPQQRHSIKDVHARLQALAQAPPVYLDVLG
TRKB, sequence (Q16620 32-822, species assumed): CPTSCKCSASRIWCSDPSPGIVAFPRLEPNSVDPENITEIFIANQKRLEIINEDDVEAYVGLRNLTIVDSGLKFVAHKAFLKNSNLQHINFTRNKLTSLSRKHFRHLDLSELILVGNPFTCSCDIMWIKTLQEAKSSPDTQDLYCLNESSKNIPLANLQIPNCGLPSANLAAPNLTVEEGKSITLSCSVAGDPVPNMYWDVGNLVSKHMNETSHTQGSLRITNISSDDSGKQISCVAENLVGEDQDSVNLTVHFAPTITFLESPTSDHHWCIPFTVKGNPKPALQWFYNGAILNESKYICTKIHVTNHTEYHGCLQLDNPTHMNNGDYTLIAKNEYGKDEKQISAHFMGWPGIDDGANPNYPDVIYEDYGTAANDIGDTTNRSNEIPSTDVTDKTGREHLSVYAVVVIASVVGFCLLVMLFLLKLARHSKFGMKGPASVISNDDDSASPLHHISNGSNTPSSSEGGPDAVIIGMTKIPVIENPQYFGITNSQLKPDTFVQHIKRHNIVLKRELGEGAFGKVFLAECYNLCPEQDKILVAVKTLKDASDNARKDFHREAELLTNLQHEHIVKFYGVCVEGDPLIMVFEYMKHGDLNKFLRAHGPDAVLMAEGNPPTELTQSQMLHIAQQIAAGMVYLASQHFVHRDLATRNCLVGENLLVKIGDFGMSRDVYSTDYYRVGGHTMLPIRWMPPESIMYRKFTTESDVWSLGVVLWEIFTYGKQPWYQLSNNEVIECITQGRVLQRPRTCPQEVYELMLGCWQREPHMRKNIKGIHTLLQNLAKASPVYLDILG

inhibition of kinase activity, P38-a [1] | inhibition at 5 µM [2] [%] | inhibition at 5 µM [3] [%] | inhibition at 5 µM [4] [%] | inhibition at 5 µM [5] [%] | inhibition at 5 µM [6] [%] | SMILES
B (B=90%-94% at 5 um) | 80 to 89 | 50 to 79 | 80 to 89 | 50 to 79 | 90 to 94 | CNC(=O)c1cc(Oc2ccc(NC(=O)c3nc(C4CC4)oc3-c3ccc(F)cc3)cc2F)ccn1 [Compound 26]
A (A=95% or greater at 5 um) | 80 to 89 | < 50 | < 50 | < 50 | 50 to 79 | CSc1nc(C(=O)Nc2ccc(Oc3ccnc(C(=O)NCCN(C)C)c3)c(F)c2)c(-c2ccc(F)cc2)o1 [Compound 41]
E (category E is less than 50%) | 50 to 79 | < 50 | < 50 | < 50 | < 50 | CNC(=O)c1ccc(Oc2ccc(NC(=O)c3nc(Cl)oc3-c3ccc(F)cc3)c(F)c2)cn1 [Compound 36]
D (category D for 50-79) | 50 to 79 | < 50 | 50 to 79 | < 50 | 50 to 79 | CNC(=O)c1cc(Oc2ccc(NC(=O)c3nc(OC)oc3-c3ccc(F)c(F)c3)cc2F)ccn1 [Compound 24]
A (A=95% or greater at 5 um) | 50 to 79 | < 50 | < 50 | < 50 | < 50 | CSc1nc(C(=O)Nc2ccc(Oc3ccnc(C(=O)NC4CCN(C)CC4)c3)c(F)c2)c(-c2ccc(F)cc2)o1 [Compound 42]
D (category D for 50-79) | 50 to 79 | 50 to 79 | 50 to 79 | < 50 | 90 to 94 | CNC(=O)c1cc(Oc2ccc(NC(=O)c3nc(OC4CC4)oc3-c3ccc(F)cc3)cc2F)ccn1 [Compound 32]
E (category E is less than 50%) | 50 to 79 | < 50 | < 50 | < 50 | 80 to 89 | CNC(=O)c1cc(Oc2ccc(NC(=O)c3nc(SC)oc3-c3ccc(Cl)s3)cc2)ccn1 [Compound 5]
E (category E is less than 50%) | < 50 | < 50 | < 50 | < 50 | < 50 | CNC(=O)c1cc(Oc2ccc(NC(=O)c3nc(SC)oc3-c3ccc(OC)cc3)cc2)ccn1 [Compound 7]
C (C=80%-89% at 5 um) | 80 to 89 | 50 to 79 | 90 to 94 | 80 to 89 | ≥ 95 | CNC(=O)c1cc(Oc2ccc(NC(=O)c3nc(COC)oc3-c3ccc(F)cc3)cc2F)ccn1 [Compound 30]
E (category E is less than 50%) | < 50 | < 50 | < 50 | < 50 | < 50 | CNC(=O)c1cc(Oc2ccc(NC(=O)c3nc(SC)oc3-c3ccc(F)s3)cc2F)ccn1 [Compound 16]
D (category D for 50-79) | 90 to 94 | < 50 | 80 to 89 | 80 to 89 | 90 to 94 | CNC(=O)c1cc(Oc2ccc(NC(=O)c3nc(SC)oc3-c3ccc(F)cc3F)cc2F)ccn1 [Compound 12]
E (category E is less than 50%) | 50 to 79 | < 50 | 50 to 79 | 50 to 79 | < 50 | CNC(=O)c1cc(Oc2ccc(NC(=O)c3nc(NC)sc3-c3ccc(F)cc3F)cc2F)ccn1 [Compound 21]
D (category D for 50-79) | 50 to 79 | < 50 | 50 to 79 | < 50 | 50 to 79 | CNC(=O)c1cc(Oc2c(F)cc(NC(=O)c3nc(NC)sc3-c3ccc(F)cc3)cc2F)ccn1 [Compound 19]
B (B=90%-94% at 5 um) | 50 to 79 | < 50 | 50 to 79 | 50 to 79 | ≥ 95 | CSc1nc(C(=O)Nc2ccc(Oc3ccnc(-c4cnn(C)c4)c3)c(F)c2)c(-c2ccc(F)cc2)o1 [Compound 11]
E (category E is less than 50%) | < 50 | < 50 | < 50 | < 50 | < 50 | CSc1nc(C(=O)Nc2ccc(Oc3ccnc(C(=O)NC4COC4)c3)c(F)c2)c(-c2ccc(F)s2)o1 [Compound 28]
D (category D for 50-79) | 80 to 89 | < 50 | 50 to 79 | 50 to 79 | 90 to 94 | CNC(=O)c1cc(Oc2ccc(NC(=O)c3nc(OC)oc3-c3ccc(F)cc3)cc2F)ccn1 [Compound 15]
E (category E is less than 50%) | < 50 | < 50 | 50 to 79 | 50 to 79 | < 50 | CNC(=O)c1cc(Oc2ccc(NC(=O)c3nc(NC)oc3-c3ccc(F)s3)cc2F)ccn1 [Compound 17]
C (C=80%-89% at 5 um) | 50 to 79 | 50 to 79 | 80 to 89 | 50 to 79 | 80 to 89 | CNC(=O)c1cc(Oc2ccc(NC(=O)c3nc(SC(C)C)oc3-c3ccc(F)cc3)cc2F)ccn1 [Compound 34]
C (C=80%-89% at 5 um) | 80 to 89 | < 50 | 50 to 79 | < 50 | 50 to 79 | CNC(=O)c1cc(Oc2ccc(NC(=O)c3nc(SC)oc3-c3ccc(F)c(F)c3)cc2)ccn1 [Compound 4]
D (category D for 50-79) | 50 to 79 | < 50 | 50 to 79 | < 50 | 50 to 79 | CNC(=O)c1cc(Oc2ccc(NC(=O)c3nc(OCC(F)(F)F)oc3-c3ccc(F)cc3)cc2F)ccn1 [Compound 38]
